These results are taken from patent US20250215030A1, “STAT MODULATORS AND USES THEREOF” (Recludix Pharma, Inc., priority 2022, published 2025).

The target of test [1] is T1, Recombinant STAT3 protein (STAT3(G127-I722)) (Homo sapiens, UniProt P40763).
T1 construct: STAT3(G127-I722)
As to the kind of experiment: STAT3 Fluorescence Polarization (FP) Assay. The following applies: STAT3(G127-I722) 25 nM, probe 5-FAM-GpYLPQTV-NH2 2 nM, 45-minute incubation. Type of test: binding. In short, it runs like this:
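STAT3(G127-I722) at 25 nM and 5-FAM-GpYLPQTV-NH2 probe at 2 nM in HEPES pH 7.4 buffer with NaCl, EDTA, Tween 20, DTT; 1% DMSO. FP read after 45 min at room temperature; IC50 by nonlinear regression of mP vs log concentration, binned A ≤100 nM to D >10 μM.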

Test [2] addresses T2, Recombinant STAT6 protein (STAT6(W123-T658)) (Homo sapiens, UniProt P42226).
T2 construct: STAT6(W123-T658)
T2 sequence (P42226 123-658): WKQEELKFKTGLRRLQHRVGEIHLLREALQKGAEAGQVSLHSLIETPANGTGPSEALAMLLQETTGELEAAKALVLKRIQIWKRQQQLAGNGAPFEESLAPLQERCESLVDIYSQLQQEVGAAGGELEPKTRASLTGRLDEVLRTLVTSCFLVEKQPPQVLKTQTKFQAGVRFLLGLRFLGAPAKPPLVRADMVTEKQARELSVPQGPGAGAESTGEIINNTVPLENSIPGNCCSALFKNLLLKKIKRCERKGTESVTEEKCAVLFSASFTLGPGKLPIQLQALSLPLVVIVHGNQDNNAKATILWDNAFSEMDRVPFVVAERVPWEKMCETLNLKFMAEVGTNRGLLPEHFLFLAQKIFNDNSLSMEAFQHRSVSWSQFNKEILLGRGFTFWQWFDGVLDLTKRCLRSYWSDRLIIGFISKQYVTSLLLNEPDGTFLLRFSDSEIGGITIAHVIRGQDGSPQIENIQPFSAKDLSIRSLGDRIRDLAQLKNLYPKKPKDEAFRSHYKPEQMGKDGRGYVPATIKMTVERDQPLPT
As to the kind of experiment: STAT6 Fluorescence Polarization (FP) Assay. Type of test: binding. As to conditions: STAT6(W123-T658) 250 nM, probe 5-FAM-ApYKPFQDLI-NH2 2 nM, 45-minute incubation. In short, it runs like this: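 STAT6 (W123-T658) at 250 nM mixed with 2 nM 5-FAM-ApYKPFQDLI-NH2 probe in HEPES pH 7.4 buffer with DTT and Tween 20, 1% DMSO final. Polarization read after 45 min at room temperature; IC50 by nonlinear regression of mP versus log concentration, reported in bins A–D.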
Background: Polarisation of emitted light reports the rotation of a fluorescent probe.

T1 sequence (P40763 127-722, species assumed): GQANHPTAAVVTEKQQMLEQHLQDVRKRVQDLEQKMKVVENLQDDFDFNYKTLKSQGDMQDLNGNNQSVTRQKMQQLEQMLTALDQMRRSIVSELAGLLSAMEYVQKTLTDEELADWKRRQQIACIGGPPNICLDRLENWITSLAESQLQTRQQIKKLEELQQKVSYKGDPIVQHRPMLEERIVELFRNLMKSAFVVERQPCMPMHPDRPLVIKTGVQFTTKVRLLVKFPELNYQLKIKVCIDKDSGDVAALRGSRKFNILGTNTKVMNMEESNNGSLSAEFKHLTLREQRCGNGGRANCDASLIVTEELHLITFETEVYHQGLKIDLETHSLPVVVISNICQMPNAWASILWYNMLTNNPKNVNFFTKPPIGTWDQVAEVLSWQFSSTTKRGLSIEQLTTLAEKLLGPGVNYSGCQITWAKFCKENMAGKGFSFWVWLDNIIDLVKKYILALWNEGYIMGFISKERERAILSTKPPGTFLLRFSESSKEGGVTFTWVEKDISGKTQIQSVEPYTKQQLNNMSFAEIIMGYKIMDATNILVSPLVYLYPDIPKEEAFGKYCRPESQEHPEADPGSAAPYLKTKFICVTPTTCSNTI

Turning to `O=C(N[C@H]1C[C@@H]2C[C@@H]2C[C@H]2CC[C@@H](C(=O)N[C@H]3CN(c4ccccn4)C[C@@H]3F)N2C1=O)c1cc2cc(CP(=O)(O)O)ccc2s1` [Example 246, ((2-(((3S,6S,7aS,8aR,9aR)-3-(((3S,4S)-4-fluoro-1-(pyridin-2-yl)pyrrolidin-3-yl)carbamoyl)-5-oxodecahydro-1H-cyclopropa[d]pyrrolo[1,2-a]azocin-6-yl)carbamoyl)benzo[b]thiophen-5-yl)methyl)phosphonic acid], the IC50 in test [1] is 100 to 1000 nM; in test [2] it was 3000 to 30000 nM.
In the same order, the values of `O=C(N[C@H]1C[C@@H]2C[C@@H]2C[C@H]2CC[C@@H](C(=O)N[C@@H]3CCN(C4CCOCC4)C3)N2C1=O)c1cc2cc(C(F)(F)P(=O)(O)O)ccc2s1` [Compound 119, (difluoro(2-(((3S,6S,7aS,8aR,9aR)-5-oxo-3-(((R)-1-(tetrahydro-2H-pyran-4-yl)pyrrolidin-3-yl)carbamoyl)decahydro-1H-cyclopropa[d]pyrrolo[1,2-a]azocin-6-yl)carbamoyl)benzo[b]thiophen-5-yl)methyl)phosphonic acid] are 100 to 1000 nM and 3000 to 30000 nM.
In the same order, the values of `C[C@@H]1COCCN1C(=O)C1CN(C(=O)[C@@H]2CC[C@@H]3C[C@H]4C[C@H]4C[C@H](NC(=O)c4cc5cc(C(F)(F)P(=O)(O)O)ccc5s4)C(=O)N32)C1` [Compound 13, (difluoro(2-(((3S,6S,7aS,8aR,9aR)-3-(3-((R)-3-methylmorpholine-4-carbonyl)azetidine-1-carbonyl)5-oxodecahydro-1H-cyclopropa[d]pyrrolo[1,2-a]azocin-6-yl)carbamoyl)benzo[b]thiophen-5-yl)methyl)phosphonic acid] are < 100 nM and 3000 to 30000 nM.
Regarding `O=C(N[C@H]1C[C@@H]2C[C@@H]2C[C@H]2CC[C@@H](C(=O)N3CC(c4nn[nH]n4)C3)N2C1=O)c1cc2cc(C(F)(F)P(=O)(O)O)ccc2s1` [Compound 103, ((2-(((3S,6S,7aS,8aR,9aR)-3-(3-(2H-tetrazol-5-yl)azetidine-1-carbonyl)-5-oxodecahydro-1H-cyclopropa[d]pyrrolo[1,2-a]azocin-6-yl)carbamoyl)benzo[b]thiophen-5-yl)difluoromethyl)phosphonic acid], the IC50 was in the range of 100 to 1000 nM in test [1] and 300 to 3000 nM in test [2].
Turning to `O=C(N[C@H]1C[C@@H]2C[C@@H]2C[C@H]2CC[C@@H](C(=O)N[C@@H]3CCN(c4cccnc4)C3)N2C1=O)c1cc2cc(C(F)(F)P(=O)(O)O)ccc2s1` [Compound 112, (difluoro(2-(((3S,6S,7aS,8aR,9aR)-5-oxo-3-(((R)-1-(pyridin-3-yl)pyrrolidin-3-yl)carbamoyl)decahydro-1H-cyclopropa[d]pyrrolo[1,2-a]azocin-6-yl)carbamoyl)benzo[b]thiophen-5-yl)methyl)phosphonic acid], the values for the IC50 in test [1] and in test [2] were < 100 nM and 300 to 3000 nM, respectively.
Taken in the same sequence, the figures for `CC(=O)N1C[C@H](NC(=O)[C@@H]2CC[C@@H]3C[C@@H]4C[C@@H]4C[C@H](NC(=O)c4cc5cc(CP(=O)(O)O)ccc5s4)C(=O)N32)[C@@H](F)C1` [Example 244, ((2-(((3S,6S,7aR,8aS,9aR)-3-(((3S,4S)-1-acetyl-4-fluoropyrrolidin-3-yl)carbamoyl)-5-oxodecahydro-1H-cyclopropa[d]pyrrolo[1,2-a]azocin-6-yl)carbamoyl)benzo[b]thiophen-5-yl)methyl)phosphonic acid] were 1000 to 10000 nM and 3000 to 30000 nM.
In the same order, the values of `O=C(N[C@H]1C[C@H]2C[C@H]2C[C@H]2CC[C@@H](C(=O)N3CC(c4cccnc4)C3)N2C1=O)c1cc2cc([C@H](F)P(=O)(O)O)ccc2s1` [Compound 21, ((R)-fluoro(2-(((3S,6S,7aR,8aS,9aR)-5-oxo-3-(3-(pyridin-3-yl)azetidine-1-carbonyl)decahydro-1H-cyclopropa[d]pyrrolo[1,2-a]azocin-6-yl)carbamoyl)benzo[b]thiophen-5-yl)methyl)phosphonic acid] are < 100 nM and 3000 to 30000 nM.
Taken in the same sequence, the figures for `N#C[C@@H]1[C@@H](c2cccnc2)CN(C(=O)[C@@H]2CC[C@@H]3C[C@H]4C[C@H]4C[C@H](NC(=O)c4cc5cc([C@H](F)P(=O)(O)O)ccc5s4)C(=O)N32)C12CC2` (single isomer, unassigned) [Example 429] were 1000 to 10000 nM and ≤ 300 nM.
Regarding `O=C(N[C@H]1C[C@H]2C[C@H]2C[C@H]2CC[C@@H](C(=O)N3CC(CC(F)F)(c4ccccc4)C3)N2C1=O)c1cc2cc(C(F)(F)P(=O)(O)O)ccc2s1` [Compound 73, ((2-(((3S,6S,7aR,8aS,9aR)-3-(3-(2,2-difluoroethyl)-3-phenylazetidine-1-carbonyl)-5-oxodecahydro-1H-cyclopropa[d]pyrrolo[1,2-a]azocin-6-yl)carbamoyl)benzo[b]thiophen-5-yl)difluoromethyl)phosphonic acid], the IC50 is < 100 nM in test [1] and 3000 to 30000 nM in test [2].
`O=C(N[C@H]1C[C@H]2C[C@H]2C[C@H]2CC[C@@H](C(=O)N3CC(c4cccnc4)C3)N2C1=O)c1cc2cc(CP(=O)(O)O)ccc2s1` [Compound 22, ((2-(((3S,6S,7aR,8aS,9aR)-5-oxo-3-(3-(pyridin-3-yl)azetidine-1-carbonyl)decahydro-1H-cyclopropa[d]pyrrolo[1,2-a]azocin-6-yl)carbamoyl)benzo[b]thiophen-5-yl)methyl)phosphonic acid]: the IC50 in test [1] is 100 to 1000 nM; in test [2], > 30000 nM.
In the same order, the values of `CC(c1ccc2sc(C(=O)N[C@H]3C[C@@H]4C[C@@H]4C[C@H]4CC[C@@H](C(=O)N5CC(C(=O)N6CCOCC6)C5)N4C3=O)cc2c1)P(=O)(O)O` (stereo partly drawn) [Compound 35, (1-(2-(((3S,6S,7aS,8aR,9aR)-3-(3-(morpholine-4-carbonyl)azetidine-1-carbonyl)-5-oxodecahydro-1H-cyclopropa[d]pyrrolo[1,2-a]azocin-6-yl)carbamoyl)benzo[b]thiophen-5-yl)ethyl)phosphonic acid] are 100 to 1000 nM and > 30000 nM.
Take `COC1(c2nccn2C)CN(C(=O)[C@@H]2CC[C@@H]3C[C@@H]4[C@H](C[C@H](NC(=O)c5cc6cc(C(F)(F)P(=O)(O)O)ccc6s5)C(=O)N32)C4(F)F)C1` [Compound 29, ((2-(((3S,6S,7aS,8aR,9aR)-8,8-difluoro-3-(3-methoxy-3-(1-methyl-1H-imidazol-2-yl)azetidine-1-carbonyl)-5-oxodecahydro-1H-cyclopropa[d]pyrrolo[1,2-a]azocin-6-yl)carbamoyl)benzo[b]thiophen-5-yl)difluoromethyl)phosphonic acid]: the IC50 in test [1] is 100 to 1000 nM; in test [2], 3000 to 30000 nM.

What is called IC50 is the concentration needed to halve the response being measured.
